Laboratory results taken from patent US12139488B2, “Pyrido[3,2-d]pyrimidine compounds uses thereof for treating a proliferative disease” (Universite de Montreal, priority 2021, dated 2024).
Read-outs that look alike come from different tables or passages of the source.

Tests used:
Format in all cases: cell-based, human
[1] = test system: pERK in HCT-116 cells (KRAS G13D); test: Phospho-ERK inhibition (AlphaLISA SureFire Ultra p-ERK 1/2), HCT116; conditions: for HCT116 pERK % Ymin: value in parentheses
In short: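 Overnight-seeded cells received compound for an hour before lysis, and phospho-ERK1/2 was then measured with an AlphaLISA SureFire Ultra kit. Percent inhibition relative to vehicle, after trametinib background subtraction, gave IC50 by curve fitting.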

[2] = test system: pERK in IPC298 cells (NRAS-Q61L); test: Phospho-ERK inhibition (AlphaLISA), IPC298; conditions: for IPC298 pERK % Ymin: IPC298, value in parentheses
Procedure: (§1) All cancer cell lines (A375, A101D, A2058, RKO, HT29 SK-MEL 30, IPC298, HepG2, HCT-116, Lovo, SWV620, SW480, NCI-H358, NCI-H2122, Calu-6, NCIH2087, NCIH1755, NCIH1666 and Mewo) were obtained from ATCC and cultured in RPMI-1640 medium (Gibco) supplemented with 5% heat inactivated fetal bovine serum (FBS, Wisent) at 37° C. under 5% CO2. Cells were maintained in T175 flasks (Greiner). They were passaged by removing the culture medium, washing once in 10 mL of room temperature Phosphate Buffered Saline (PBS; Wisent) and incubating at 37° C. with 2 mL of 0.05% Trypsin (Thermo-Fisher). Trypsin was then inactivated by adding complete growth medium and the cells were then replated in a T175 culture dish at the appropriate dilution. All cell lines were routinely tested for mycoplasma contamination. Tissue type and mutational status of each cell line can be found in Table B.
(§2) AlphaLISA® SureFire® Ultra™ p-ERK 1/2 (Thr202/Tyr204) analysis was conducted on cells plated in 100 μL of complete RPMI-1640 growth medium in 96-well flat-bottomed transparent dishes (Costar) at a density indicated in Table C. Cells were maintained overnight at 37° C. under 5% CO2 before treatment with compounds' dilution series for one hour. The cell density in cells/cm^2 corresponds to cell number divided by the area of one well of a 96-well plate ([…]).
(§3) In a dilution series 100 μL/well of test substance dilution prepared in complete RPMI-1640 growth media was added to the cells. The dilution series is selected so that ten concentrations cover a range from 10 μM to 0.33 nM. If necessary the initial concentration of 10 μM is increased to 100 μM or lowered to 1 μM (as in the case of A375 and H1666 cells, which are generally more sensitive to the compounds) and further dilution is carried out accordingly. The final concentration of DMSO in the assay is set at 0.5%.
(§4) After treatment, media was removed and cells were lysed in 50 μL of 1× AlphaScreen Ultra Lysis Buffer (Perkin Elmer). The AlphaLISA® SureFire® Ultra™ p-ERK 1/2 (Thr202/Tyr2O4) (PerkinElmer) reactions were performed with 5 μL of cell lysate according to the manufacturer's specifications in 384-well proxyplates (Perkin Elmer) followed by overnight incubation of the reactions at room temperature in a humidified chamber. After completion of the reactions, the signals were recorded on an EnVision plate reader (Perkin Elmer) using built in AlphaLISA® settings.
(§5) The effect of each compound dilution on the pERK signal was expressed in % inhibition and calculated as follows. An internal 100% inhibition control ([…] trametinib, cat #HY-10999; MedChem Express; CAS #871700-17-3) was included in each plate and used as a measure of pERK background. First, the value obtained for trametinib was subtracted from each data point. The average of DMSO (vehicle) controls (set as 0% inhibition) was established and used to calculate % inhibition: % inhibition=100*(1-((pERK signalcompound)/(pERK signalDMSO)))
(§6) The ability of each compound to inhibit pERK signal was expressed as an IC50 value obtained by plotting the inhibition values for each data point of a dilution series and fitting the obtained curves using a log(agonist) versus response-variable slope (four parameters) function using GraphPadPrism (V7.0) or Dotmatics Screening Ultra platform.
(§7) When present, paradoxical pERK induction is inferred from the negative % inhibition values observed in the pERK IC50 curves of a compound.

[3] = test system: pERK in HepG2 cells (NRAS-Q61L); test: Phospho-ERK inhibition (AlphaLISA), HepG2; conditions: for HepG2 pERK % Ymin: HepG2, value in parentheses; for IC50: HepG2
Procedure: as §1, §2, §3, §4, §5, §6, §7

[4] = test system: pERK in Calu-6 cells (KRAS Q61K); test: Phospho-ERK inhibition (AlphaLISA), Calu-6; conditions: for Calu6 pERK % Ymin: Calu6, value in parentheses
Procedure: as §1, §2, §3, §4, §5, §6, §7

[5] = test system: pERK in Mewo cells (NF1 LOF); test: Phospho-ERK inhibition (AlphaLISA), Mewo; conditions: for Mewo pERK % Ymin: value in parentheses
Procedure: as §1, §2, §3, §4, §5, §6, §7

[6] = test system: SK-MEL30 cells (NRAS-Q61K); test: Proliferation inhibition (CellTiter-Glo), SK-MEL30; conditions: SK-MEL30, 3 days, read-out: SK-MEL30 Prolif. EC50
Procedure: as §1
CellTiter-Glo® viability analysis was conducted on cells plated in 100 μL of complete RPMI-1640 growth medium in 96-well flat-bottomed white opaque plates (Greiner or Croning) at a density indicated in Table E (for each CCL, number of cells plated per well of a 96-well plate to perform the CellTiter-Glo® cell viability assay). The cell density in cells/cm^2 would correspond to cell number divided by the area of one well of a 96-well plate (0.32 cm^2). […]
After 3 days of incubation, the growth media were removed by aspiration and 60 μL of diluted CellTiter-Glo® reagent (10 μL CellTiter-Glo® reagent+50 μL of PBS) was added to each well. […] Luminescence signals were then acquired on a Synergy Neo2 plate reader (Biotek).
The effect of each compound dilution on the proliferation of cancer cell lines was expressed in % inhibition and calculated as follows. […]
as §6, with “proliferation” for “pERK signal”, “a EC50” for “an IC50”, “effect” for “inhibition”

| SMILES | HCT116 pERK % Ymin ([1]; HCT116, Table D) [%] | IPC298 pERK % Ymin [2] [%] | HepG2 pERK % Ymin [3] [%] | Calu6 pERK % Ymin [4] [%] | Mewo pERK % Ymin ([5]; Mewo) [%] | IC50 ([1]; HCT116, Table D) [nM] | IC50 ([2]; IPC298) [nM] | IC50 [3] [nM] | IC50 ([4]; Calu6) [nM] | IC50 ([5]; Mewo) [nM] | EC50 [6] [nM] | also measured |
| --- | --- | --- | --- | --- | --- | --- | --- | --- | --- | --- | --- | --- |
| Cc1ccc2c(Nc3cccc(Cl)c3F)nccc2c1NC(=O)c1csc2c(N)ncnc12 [Belvarafenib, reference compound] | −46 | −63 | −36 | −39 | −116 | – | – | – | – | – | – | IC50 ([1]; Homo sapiens, HCT-116, HCT116, Table D): 30 to 300 nM; IC50 ([2]; Homo sapiens, IPC-298): 30 to 300 nM; IC50 ([3]; Homo sapiens): 30 to 300 nM; IC50 ([4]; Homo sapiens, Calu-6, read-out: Calu6 pERK IC50): 30 to 300 nM; IC50 ([5]; Homo sapiens, MeWo): 30 to 300 nM; EC50 ([6]; Homo sapiens, SK-MEL-30, 72 h): < 30 nM |
| Nc1cccc2c1ncn2-c1ccc2ncnc(Nc3c(F)ccc(NS(=O)(=O)c4cccc(Cl)c4Cl)c3F)c2n1 [Example 99] | −0.3 | −2 | 7 | −12 | −7 | 30 to 300 | 30 to 300 | < 30 | 30 to 300 | 30 to 300 | < 30 | HCT116 pERK Ymin % ([1]; HCT116 cells, Ymin in brackets): −5.4%; IC50 ([1]; HCT116 cells, class symbol before the bracket): < 500 nM; YMIN of pERK IC50 dose response curve (paradoxical induction of pERK signaling) ([1]; RAS-mutant HCT116 cells, FIG. 1): > −20% |
| CC1(O)CCN(c2cccc3c2ncn3-c2ccc3ncnc(Nc4c(F)ccc(NS(=O)(=O)c5cccc(Cl)c5Cl)c4F)c3n2)CC1 [Example 524] | −3 | 13 | 2 | −13 | −5 | 30 to 300 | 30 to 300 | 30 to 300 | 30 to 300 | 30 to 300 | < 30 | IC50 ([1]; HCT116 cells, class symbol): < 500 nM |
